≈ marks a conversion by molar mass, not a printed value. Like-named read-outs stand apart in the source and are kept apart here.
How the values were obtained:
[1] = system: WNT/β-catenin signaling pathway reporter in HEK293 cells; test: cells; format: cell-based, human; conditions: for activity in words: assay not given (TNKS2 / HEK293), Supplementary Table 1; for IC50: Homo sapiens, HEK293, read-out: HEK293 IC50, WNT/β-catenin reporter
Experimental: (§1) In the first round of the optimization campaign, we prepared single-point modifications changing any of the four regions in 1 (Figure 1) while leaving the other regions constant. In the following stages of the optimization campaign, additional East, West, and South moieties were also utilized, combining the best structural elements of the first single-point modification round. For the optimization, in vitro ADME properties and solubility of selected compounds were measured.

kinetic solubility assay = format: physicochemical; conditions: for solubility: Table 2
Experimental: (§2) Kinetic solubility assay was performed following standard protocols of Mercachem. The following assays were performed according to the standard protocols of Cyprotex: Caco-2 permeability, dog microsomal stability, hepatocyte stability (human, mouse, dog, rat, and cynomolgus), CYP3A4 inhibition, mouse plasma stability, mouse plasma protein binding, and Ames test.

Caco-2 permeability = format: in vitro ADME; conditions: human
Experimental: as §2

[2] = microsomal stability, human liver microsomes; format: in vitro ADME; conditions: for half-life at 1 μM: pH 7.4, read-out: Microsomal stability t1/2 human
Experimental: (§3) Test compounds in DMSO (10 mM) were further diluted to 100 μM in acetonitrile. Human or mouse liver microsomes (BioIVT) from selected species are incubated in duplicate with the test compound at a final concentration of 1 μM in 0.1 M potassium phosphate buffer (pH 7.4) containing 3.3 mM MgCl2, 0.5 mg/mL microsomal protein, in the presence or absence of NADPH (1 mM). Incubations were performed at 37 °C in a total volume of 500 μL. Control incubations with reference substances were included for each experiment. At t = 0, 5, 15, 30, 45 min, an amount of 50 μL of the incubation mixture was transferred to a quench plate containing acetonitrile and internal standard (200 nM labetalol) cooled at 4 °C. After the last time point, the quench plates are mixed thoroughly and centrifuged for 15 min at 3700 rpm and 10 °C (Eppendorf 5804R). The supernatant was transferred to a 96-well plate and analyzed by LCMS (Vanquish Horizon UHPLC equipped with a diode array detector coupled to a Q Exactive focus hybrid quadrupole-Orbitrap mass spectrometer). The metabolic stability is evaluated by plotting the natural logarithm of the percentage test compound remaining versus time and performing linear regression.

[3] = microsomal stability, mouse liver microsomes; format: in vitro ADME; conditions: for half-life at 1 μM: pH 7.4, read-out: Microsomal stability t1/2 mouse
Experimental: as §3

in vivo = test: in vivo
Experimental: as §1
The pharmacokinetical analyses in mice were performed according to the standard protocols of Medicilon and, as previously described,[9] using 3 animals per treatment group using 5% DMSO, 50% PEG400 (both Sigma-Aldrich) and 45% saline as vehicle.

[4] = system: PARPs/ARTDs ARTD1/2/3/4/7/8/10/12; test: PARP/ARTD family selectivity, biochemical assays
[5] = hepatocyte stability, human; format: in vitro ADME; conditions: hepatocytes
Experimental: as §2

CYP3A4 = molecular target: T1, CYP3A4 (Homo sapiens, UniProt P08684); test: CYP3A4 inhibition; format: in vitro ADME
T1 construct: Cyprotex
Experimental: as §2

TNKS2 = molecular target: T2, TNKS2 (Homo sapiens, UniProt Q9H2K2); format: biochemical
T2 construct: TNKS2 (residues 873–1162); made in house
T2 sequence (Q9H2K2 873-1162): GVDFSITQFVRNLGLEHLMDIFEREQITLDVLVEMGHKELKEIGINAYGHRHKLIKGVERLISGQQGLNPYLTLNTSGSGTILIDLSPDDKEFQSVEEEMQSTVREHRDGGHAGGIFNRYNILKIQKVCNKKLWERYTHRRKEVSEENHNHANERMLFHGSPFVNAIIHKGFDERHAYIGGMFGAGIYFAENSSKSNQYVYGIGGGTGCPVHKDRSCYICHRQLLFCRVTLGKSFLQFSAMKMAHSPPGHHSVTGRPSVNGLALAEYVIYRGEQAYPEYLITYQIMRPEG
Experimental: as §1
Human tankyrase active constructs for TNKS1 (residues 1030–1317) and TNKS2 (residues 873–1162) and other ARTD/PARP enzymes used in the assays were expressed and purified as previously described.[34],[35] The enzymatic assay is based on the measurement of unreacted NAD^+, which is chemically converted into a fluorescent compound.[36] The fluorescence intensity was measured with excitation/emission wavelengths of 372 and 444 nm, respectively, using Tecan Infinity M1000 Pro. The compounds were prepared in half log dilution series and the reactions were done in quadruplicates with protein and compound controls to exclude the effect of compound autofluorescence. All reactions were done at ambient temperature. 20 nM TNKS1 or 5 nM TNKS2 was incubated for 20 h in assay buffer (50 mM BTP, pH 7.0, 0.5 mM TCEP, 0.01% Triton-X100) with compound and 10 μM or 500 nM NAD^+, respectively. […] For ARTD3/PARP3, 20 nM enzyme was incubated for 4 h with compound and 500 nM NAD^+ in assay buffer (50 mM PIPES, pH 7.0, 5 mM MgCl2, 20 μg/mL activated DNA, 0.2 mg/mL BSA). The assay conditions for the other ARTD enzymes were used as previously described.[37]

[6] = pH 7.4, read-out: Kinetic Solubility pH 7.4
[7] = A-B, read-out: Caco-2 permeability Papp AB

T1 sequence (P08684 whole entry, species assumed): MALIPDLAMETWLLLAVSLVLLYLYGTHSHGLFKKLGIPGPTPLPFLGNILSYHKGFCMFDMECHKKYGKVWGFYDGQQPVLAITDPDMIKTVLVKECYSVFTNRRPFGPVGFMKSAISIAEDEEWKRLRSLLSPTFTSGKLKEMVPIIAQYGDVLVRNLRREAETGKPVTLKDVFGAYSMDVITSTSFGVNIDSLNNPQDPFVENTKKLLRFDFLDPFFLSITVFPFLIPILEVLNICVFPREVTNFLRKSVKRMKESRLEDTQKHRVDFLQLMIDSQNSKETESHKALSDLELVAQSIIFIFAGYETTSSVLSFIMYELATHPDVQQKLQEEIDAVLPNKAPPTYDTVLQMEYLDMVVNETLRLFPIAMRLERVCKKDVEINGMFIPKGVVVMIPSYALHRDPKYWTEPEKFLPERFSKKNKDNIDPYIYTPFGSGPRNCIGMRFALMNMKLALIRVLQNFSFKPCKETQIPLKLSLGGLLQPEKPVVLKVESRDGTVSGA

For “3-(trans-3-(4-(2-Chlorophenyl)-5-(pyrimidin-4-yl)-4H-1,2,4-triazol-3-yl)cyclobutyl)isoindolin-1-one [compound 51]”, the activity in words [1] was “activity was restored”.

With `N#Cc1ccc2c(c1)[nH]c(=O)n2[C@H]1C[C@H](c2nnc(-c3ccncn3)n2-c2ccccc2Cl)C1` [compound 1] the solubility kinetic (kinetic solubility assay; PBS, pH = 7) was 12 µM (≈ 5.63 µg/mL), the solubility kinetic (kinetic solubility assay; [6]) was 12 µM (≈ 5.63 µg/mL) and the Papp A→B (Caco-2 permeability; [7]) was 100 nm/s. The microsomal CLint at 1 μM ([2]; pH 7.4) was 242 µL/min/mg, the half-life at 1 μM [2] was 6 min and the microsomal CLint at 1 μM ([3]; pH 7.4) was 204 µL/min/mg. It also gave a half-life at 1 μM [3] of 7 min, a CL (in vivo; mouse po 5 mg/kg) of 34.0 L/h/kg and a Vd (in vivo; mouse po 5 mg/kg) of 74.2 L/kg. For the same compound, the T1/2 (in vivo; mouse po 5 mg/kg, 5 mg/kg) was 90 min, the AUC(0-inf) (in vivo; mouse, in vivo, po, 5 mg/kg) was 0.147 µg·h/mL and the AUC(0-t) (in vivo; mouse, in vivo, po, 5 mg/kg) was 0.145 µg·h/mL. For the same compound, the Cmax (in vivo; mouse, in vivo, po, 5 mg/kg) was 0.124 µg/mL, the MRT inf (in vivo; mouse, in vivo, po, 5 mg/kg) was 96.6 min and the Tmax (in vivo; mouse, in vivo, po, 5 mg/kg) was 15 min. It also gave a bioavailability (in vivo; mouse, in vivo, po, 5 mg/kg) of 47%, a half-life (in vivo; mouse, in vivo, po, 5 mg/kg, T1/2, mouse po 5 mg/kg) of 90.6 min and an IC50 [4] of over 10 µM. The hepatocyte CLint [5] was 9.8 µL/min/1e6 cells and the IC50 (CYP3A4) was 1.26 µM.

For `Cn1c(=O)n([C@H]2C[C@H](c3nnc(-c4ccncn4)n3-c3ccccc3Cl)C2)c2ccc(C#N)cc21` [compound 17], the IC50 (TNKS2) was 0.034 µM and the IC50 [1] was 0.116 µM.

`N#Cc1ccc2c(c1)oc(=O)n2[C@H]1C[C@H](c2nnc(-c3ccncn3)n2-c2ccccc2Cl)C1` [compound 18, 3-(trans-3-(4-(2-Chlorophenyl)-5-(pyrimidin-4-yl)-4H-1,2,4-triazol-3-yl)cyclobutyl)-2-oxo-2,3-dihydrobenzo[d]oxazole-6-carbonitrile] gave an IC50 (TNKS2) of 0.048 µM and an IC50 [1] of 0.274 µM.

Compound `N#Cc1ccc2c(c1)[nH]c(=O)n2C12CC(c3nnc(-c4ccncn4)n3-c3ccccc3Cl)(C1)C2` [compound 19, 1-(3-(4-(2-Chlorophenyl)-5-(pyrimidin-4-yl)-4H-1,2,4-triazol-3-yl)bicyclo[1.1.1]pentan-1-yl)-2-oxo-2,3-dihydro-1H-benzo[d]imidazole-5-carbonitrile] has an IC50 (TNKS2) of 0.0036 µM, an IC50 [1] of 0.0047 µM and a solubility kinetic (kinetic solubility assay; [6]) of 1.5 µM (≈ 0.721 µg/mL). It also gave an efflux ratio at 2 h, 10 µM (Caco-2 permeability) of 5.3, a Papp A→B at 2 h, 10 µM (Caco-2 permeability; [7]) of 50 nm/s and a microsomal CLint at 0.75 h, 1 µM ([2]; pH 7.4) of 200 µL/min/mg. It also gave a half-life at 1 μM [2] of 7 min, a microsomal CLint at 0.75 h, 1 µM ([3]; pH 7.4) of 256 µL/min/mg and a half-life at 1 μM [3] of 5 min.

With `O=C(N[C@H]1C[C@H](c2nnc(-c3ccccn3)n2-c2ccccc2F)C1)c1ccnc2cccnc12` [compound 26] the solubility (kinetic solubility assay; pH 7.4) was over 80 µM.

`Cc1cccc(-c2nnc([C@H]3C[C@H](NC(=O)c4ccnc5cccnc45)C3)n2-c2ccccc2F)n1` [compound 30] gave a solubility (kinetic solubility assay; pH 7.4) of over 80 µM.

In the case of `Cc1cccc(-c2nnc([C@H]3C[C@H](NC(=O)c4ccnc5cc(F)cnc45)C3)n2-c2ccccc2F)n1` [compound 31], the solubility (kinetic solubility assay; pH 7.4) is reported as over 80 µM.

Work on `O=C(N[C@H]1C[C@H](c2nnc(-c3ccc(OC(F)F)cn3)n2-c2ccccc2F)C1)c1ccnc2cccnc12` [compound 34] yielded a solubility (kinetic solubility assay; pH 7.4) of 14 µM (≈ 7.44 µg/mL).

In the case of `O=C(N[C@H]1C[C@H](c2nnc(-c3ccc(OC(F)F)cn3)n2-c2ccccc2F)C1)c1ccnc2cc(F)cnc12` [compound 35], the solubility (kinetic solubility assay; pH 7.4) is reported as 54 µM (≈ 29.7 µg/mL).

In the case of `CN(C(=O)c1ccccn1)[C@H]1C[C@H](c2nnc(-c3ccncn3)n2-c2ccccc2Cl)C1` [compound 44], the activity in words [1] is reported as “inactive”.

For `O=C(Cc1ccccc1)N[C@H]1C[C@H](c2nnc(-c3ccncn3)n2-c2ccccc2Cl)C1` [compound 52], the activity in words [1] was “inactive”.

In the case of `O=C(N[C@H]1C[C@H](c2nnc(-c3ccncn3)n2-c2ccccc2Cl)C1)C1CCCCC1` [compound 53], the activity in words [1] is reported as “inactive”.

For `CC(=O)N[C@H]1C[C@H](c2nnc(-c3ccncn3)n2-c2ccccc2Cl)C1` [compound 54], the activity in words [1] was “inactive”.

In the case of `N#Cc1ccc2c(c1)[nH]c(=O)n2[C@H]1C[C@H](c2nnc(-c3ccncn3)n2-c2ccccc2C(F)(F)F)C1` [compound 66], the activity in words [1] is reported as “comparable activities to the previous lead 1”.

For `N#Cc1ccc2c(c1)[nH]c(=O)n2[C@H]1C[C@@H](c2nnc(-c3ccncn3)n2-c2ccccc2Cl)C1` [compound 75], the potency in words (TNKS2) was “decreased potency”.

— article PMC8008393, “Preclinical Lead Optimization of a 1,2,4-Triazole Based Tankyrase Inhibitor” (Journal of Medicinal Chemistry, 2020)
